“Also recorded” adds a separate entry of the source. Counter-ions that a name gives are not always drawn. Like-named read-outs stand apart in the source and are kept apart here.
Experiments:
Type in all cases: cell-based
OAT4 [1] = target: T1, OAT4 (Homo sapiens, UniProt Q9NSA0); assay: Inhibition experiment: ^3H-estrone sulfate uptake in OAT4 cRNA-injected oocytes with various compounds; settings: 50 nM ^3H-estrone sulfate; 500 μM unlabeled compound; FIG. 4
T1 construct: cRNA (an RNA complementary to cDNA) was prepared from a plasmid containing this cDNA; expressed in transfected cells; host or cells: Xenopus laevis oocytes injected with OAT4 cRNA (transcribed in vitro with T7 RNA polymerase from plasmid pZL holding the hOAT4 cDNA)
T1 sequence (Q9NSA0 1-550): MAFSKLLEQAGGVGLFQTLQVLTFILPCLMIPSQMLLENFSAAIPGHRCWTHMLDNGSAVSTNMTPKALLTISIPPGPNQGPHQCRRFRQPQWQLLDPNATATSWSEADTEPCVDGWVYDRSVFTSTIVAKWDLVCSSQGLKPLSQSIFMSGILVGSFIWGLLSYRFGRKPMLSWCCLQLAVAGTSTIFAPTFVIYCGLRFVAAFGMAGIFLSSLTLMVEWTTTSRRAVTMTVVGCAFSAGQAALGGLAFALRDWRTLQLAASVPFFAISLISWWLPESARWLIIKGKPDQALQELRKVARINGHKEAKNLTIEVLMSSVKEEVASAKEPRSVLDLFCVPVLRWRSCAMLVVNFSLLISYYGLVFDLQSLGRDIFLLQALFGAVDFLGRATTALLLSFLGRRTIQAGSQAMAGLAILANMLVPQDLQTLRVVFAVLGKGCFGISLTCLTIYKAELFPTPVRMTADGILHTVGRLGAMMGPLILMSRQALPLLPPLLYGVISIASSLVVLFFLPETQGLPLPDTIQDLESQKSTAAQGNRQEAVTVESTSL
Method: Further, in order to investigate the substrate selectivity of OAT4 of the present invention, various ionic substances were added to an incorporation experimental system of ^3H-estrone sulfate and the influence thereby was tested (Inhibition Experiment).
In order to further investigate the substrate selectivity of OAT4, various anionic substances were added to a system in an uptake experiment system of ^3H-estrone sulfate in oocytes into which OAT4 cRNA was injected and the influence was investigated (inhibition experiment). An uptake experiment of ^3H-estrone sulfate was carried out according to the above-mentioned method using oocytes into which OAT4 cRNA was injected. Uptake of 50 nM ^3H-estrone sulfate was measured in the presence and absence of 500 μM of various compounds (unlabeled).

OAT4 [2] = target: T1, OAT4
Method: In order to confirm that the resulting OTA4 has an organic anion transport activity, cRNA (an RNA complementary to cDNA) was prepared from a plasmid containing this cDNA according to a method of Sekine, et al. (Sekine, T., et al., J. Biol. Chem., volume 272, pages 18526-18529, 1997) and injected into oocytes of Xenopus laevis and the oocytes were subjected to an incorporation experiment for various organic anions and organic cations which were labeled with radioisotopes.
From an OAT4 cDNA-containing plasmid was prepared cRNA (an RNA complementary to cDNA) in vitro using a T7 RNA polymerase (Sekine, T., et al., J. Biol. Chem., volume 272, pages 18526-18529, 1997).
The resulting cRNA was injected into oocytes of Xenopus laevis according to the already-reported method (Sekine, T., et al., J. Biol. Chem., volume 272, pages 18526-18529, 1997) and the oocytes were subjected to an incorporation experiment using various labeled organic anions and organic cations.

OAT4 [3] = target: T1, OAT4; assay: Inhibitory test of OAT4 by sulfate conjugates and glucuronic acid conjugates; settings: FIG. 5
OAT4 [4] = target: T1, OAT4; assay: Michaelis-Menten kinetic test of organic anion transport by OAT4 in oocytes injected with OAT4 cRNA; settings: FIG. 2
Method: After that, the above-mentioned oocytes into which OAT4 cRNA was injected was used for checking the changes in the amount of estrone sulfate, dehydroepiandrosterone sulfate and ochratoxin A incorporated by OAT4 of the present invention at various concentrations whereby a Michaelis-Menten dynamic test for an organic anion transport was carried out.
A Michaelis-Menten dynamic test was carried out for an organic anion transport of OAT4. Changes in the uptake amount of various concentrations of estrone sulfate and dehydroepiandrosterone sulfate by OAT4 were tested whereby concentration dependency of those substrates by OAT4 was investigated. The uptake experiment of labeled estrone sulfate and dehydroepiandrosterone sulfate was carried out according to the above-mentioned method using oocytes into which OAT4 cRNA was injected.

OAT4 [5] = target: T1, OAT4; assay: Cation (sodium) dependency of estrone sulfate transport via OAT4 in oocytes; settings: extracellular sodium substituted with lithium and choline; FIG. 3
Method: Dependency of the OAT4 of the present invention on sodium in an organic anion transport was investigated. Incorporation of estrone sulfate by OAT4 was tested in the presence of various extracellular cations.
Sodium-dependency of OAT4 in an organic anion transport was investigated. Even when extracellular sodium was substituted with lithium and choline, there was no change in the transport of estrone sulfate via OAT4 and it was clarified that OAT4 is an organic anion transporter which is independent on extracellular sodium (refer to FIG. 3).

Molecule | inhibition of transport of ^3H-estrone sulfate by OAT4 (OAT4 [1]) | other results
O=C1OC(c2ccc(O)c(S(=O)(=O)O)c2)(c2ccc(O)c(S(=O)(=O)O)c2)c2c(Br)c(Br)c(Br)c(Br)c21 [bromosulfophthalein] | significantly inhibited | 
C[C@@H]1Cc2c(Cl)cc(C(=O)N[C@@H](Cc3ccccc3)C(=O)O)c(O)c2C(=O)O1 [ochratoxin A] |  | incorporation (uptake) by oocytes expressing OAT4 (OAT4 [2]; Xenopus laevis oocytes injected with OAT4 cRNA, radiolabeled substrate, FIG. 1, listed as 3H-ochratoxin A): incorporated; also recorded: showed incorporation
C[C@H](CCC(=O)O)[C@H]1CC[C@H]2[C@@H]3[C@H](O)C[C@@H]4C[C@H](O)CC[C@]4(C)[C@H]3C[C@H](O)[C@]12C [cholic acid] | significantly inhibited | 
CC(C)Cc1ccc(C(C)C(=O)O)cc1 (stereo not drawn) [ibuprofen] | significantly inhibited | 
O=C(O)[C@H]1O[C@@H](Oc2cccc3ccccc23)[C@H](O)[C@@H](O)[C@@H]1O [α-naphthyl-β-glucuronide] |  | interaction with OAT4 (inhibitory test) (OAT4 [3]): only a weak interaction with OAT4 except α-naphthyl-β-glucuronide
CC[N+](CC)(CC)CC [tetraethylammonium] | did not show an inhibiting action; also recorded: did not show any inhibiting action | incorporation (uptake) by oocytes expressing OAT4 (OAT4 [2]): no incorporation was noted
O=C(O)Cc1ccccc1Nc1c(Cl)cccc1Cl [diclofenac] | significantly inhibited | 
dehydroepiandrosterone sulfate |  | incorporation (uptake) by oocytes expressing OAT4 (OAT4 [2]; Xenopus laevis oocytes injected with OAT4 cRNA, radiolabeled substrate, FIG. 1, listed as 3H-dehydroepiandrosterone sulfate): incorporated; also recorded: showed incorporation
estrone sulfate |  | incorporation (uptake) by oocytes expressing OAT4 (OAT4 [2]; Xenopus laevis oocytes injected with OAT4 cRNA, radiolabeled substrate, FIG. 1, listed as 3H-estrone sulfate): incorporated; also recorded: showed incorporation; Km (OAT4 [4]): 1.01 ± 0.15 µM; change in transport of estrone sulfate via OAT4 on cation substitution (OAT4 [5]): no change
COc1ccc2c(c1)c(CC(=O)O)c(C)n2C(=O)c1ccc(Cl)cc1 [indomethacin] | significantly inhibited | 
C[C@H](CCC(=O)NCCS(=O)(=O)O)[C@H]1CC[C@H]2[C@@H]3[C@H](O)C[C@@H]4C[C@H](O)CC[C@]4(C)[C@H]3C[C@H](O)[C@]12C [taurocholic acid] | significantly inhibited | 
CC1(C)S[C@@H]2[C@H](NC(=O)Cc3ccccc3)C(=O)N2[C@H]1C(=O)O [penicillin G] | significantly inhibited | 
Nc1cc(N2CCCCC2)nc(N)[n+]1OS(=O)(=O)[O-] [minoxidil sulfate] |  | interaction with OAT4 (inhibitory test) (OAT4 [3]): all sulfate conjugates except minoxidil sulfate showed an interaction
CCCN(CCC)S(=O)(=O)c1ccc(C(=O)O)cc1 [probenecid] | significantly inhibited | 
CCCCNc1cc(C(=O)O)cc(S(N)(=O)=O)c1Oc1ccccc1 [bumetanide] | significantly inhibited | 
